Residues, ends and D or L forms follow the SMILES beside them.
Key:
[1] = system: intratumoral macrophages (F4/80); assay: Immunohistochemistry of intratumoral macrophages (F4/80) in PC xenografts; assay type: in vivo, mouse; settings: PC xenografts (shown for BxPC-3)
Procedure: All staining and quantification procedures were performed by HistoTox Laboratories. Briefly, mice containing AsPC-1, BxPC-3, and Capan-1 tumors were humanely euthanized for necropsy at the end of the study. Excised tumors were fixed using 10% neutral buffered formalin for 1-2 days, processed for paraffin embedding, and sectioned at […]. Antigen retrieval for F4/80 was achieved using Proteinase K (Dako North America). Sections were blocked for peroxidase and alkaline phosphatase activity using Dual Endogenous Enzyme Block (Dako North America). Sections were then incubated with Protein Block (Dako North America) followed by primary antibody F4/80 (1:2000, AbD Serotec) diluted using 1% bovine serum albumin in Tris-buffered saline. […] Quantitative analysis of intratumoral F4/80 staining was determined using Visiopharm software.
Mice containing BxPC-3 tumors were humanely euthanized for necropsy at the end of the study. […] Quantitative analysis of intratumoral F4/80 staining was determined using Visiopharm software.
Immunohistochemistry. All staining and quantification procedures were performed by HistoTox Labs. […] Quantitative analysis of intratumoral F4/80 staining was determined using Visiopharm software.

[2] = comparison of therapies (cancer indications); settings: shown for cancer indications
[3] = system: mice with oxygen-induced retinopathy (OIR); assay: oxygen-induced retinopathy (OIR) in mice; assay type: in vivo
Text: The membrane was probed for TREM-1, reprobed for CSF1 and then for β-actin.

[4] = penetration of the blood-brain and blood-retinal barrier after systemic administration; assay type: in vivo; settings: rhodamine B-labeled; mice intraperitoneally; rats and rabbits intravenously (G-KV21)

## CC(C)C[C@H](NC(=O)[C@H](Cc1ccccc1)NC(=O)CN)C(=O)N[C@@H](CO)C(=O)N[C@@H](CCCCN)C(=O)N[C@@H](CO)C(=O)N[C@@H](CC(C)C)C(=O)N[C@H](C(=O)N[C@@H](Cc1ccccc1)C(=O)NCC(=O)N[C@@H](CCC(=O)O)C(=O)N[C@@H](CCC(=O)O)C(=O)N[C@@H](CC[S+](C)[O-])C(=O)N[C@@H](CCCNC(=N)N)C(=O)N[C@@H](CC(=O)O)C(=O)N[C@@H](CCCNC(=N)N)C(=O)N[C@@H](C)C(=O)N[C@@H](CCCNC(=N)N)C(=O)N[C@@H](C)C(=O)N[C@@H](Cc1c[nH]cn1)C(=O)N[C@H](C(=O)O)C(C)C)C(C)C (some centres unmarked) [G-HV21] (HELM PEPTIDE1{G.F.L.S.K.S.L.V.F.G.E.E.[CS(=O)CC[C@H](N[*:1])C(=O)[*:2]].R.D.R.A.R.A.H.V}$$$$V2.0)
[1]
  intratumoral macrophage content / infiltration (F4/80): reduces the macrophage infiltration into the tumor

## CC(C)C[C@H](NC(=O)[C@H](Cc1ccccc1)NC(=O)CN)C(=O)N[C@@H](CO)C(=O)N[C@@H](CCCCN)C(=O)N[C@@H](CO)C(=O)N[C@@H](CC(C)C)C(=O)N[C@H](C(=O)N[C@@H](Cc1ccccc1)C(=O)O)C(C)C [GF9] (H-GFLSKSLVF-OH)
[2]
  Acute toxicity: LOW

## CC(C)C[C@H](NC(=O)[C@H](Cc1ccccc1)NC(=O)CN)C(=O)N[C@@H](CO)C(=O)N[C@@H](CCCCN)C(=O)N[C@@H](CO)C(=O)N[C@@H](CC(C)C)C(=O)N[C@H](C(=O)N[C@@H](Cc1ccccc1)C(=O)N[C@@H](Cc1c[nH]c2ccccc12)C(=O)N[C@@H](CCC(N)=O)C(=O)N[C@@H](CCC(=O)O)C(=O)N[C@@H](CCC(=O)O)C(=O)N[C@@H](CC[S+](C)[O-])C(=O)N[C@@H](CCC(=O)O)C(=O)N[C@@H](CC(C)C)C(=O)N[C@@H](Cc1ccc(O)cc1)C(=O)N[C@@H](CCCNC(=N)N)C(=O)N[C@@H](CCC(N)=O)C(=O)N[C@@H](CCCCN)C(=O)N[C@H](C(=O)O)C(C)C)C(C)C (some centres unmarked) [G-KV21] (HELM PEPTIDE1{G.F.L.S.K.S.L.V.F.W.Q.E.E.[CS(=O)CC[C@H](N[*:1])C(=O)[*:2]].E.L.Y.R.Q.K.V}$$$$V2.0)
[3]; 25 mg/kg GF9, 2.5 mg/kg GF9-sSLP, 4 mg/kg GA/E31-sSLP where stated
  pathological retinal neovascularization (RNV): significantly suppresses pathological RNV
[3]; P17, Western blot
  retinal tissue expression of TREM-1 and CSF-1 (M-CSF): inhibits tissue expression of TREM-1 and M-CSF
[4]
  penetration of the BBB and BRB: penetration of the BBB and BRB

From patent US20210322508A1, “PEPTIDES AND COMPOSITIONS FOR TARGETED TREATMENT AND IMAGING” (SIGNABLOK, INC., priority 2018, published 2021)
